Measurements: US20230286973A1, “PROTEIN SECRETION INHIBITORS” (KEZAR LIFE SCIENCES, priority 2020, published 2023)
Values joined by “and” are separate entries in the source; they are usually repeats but may differ in a detail not shown here. Equal values may be shown once.

Experiments:
[1] = tested on: multiple myeloma cell line NCI-H929; experiment: H929 Cell Viability Assay; type: cell-based, human; details: Homo sapiens, NCI-H929, 48 h, NCI-H929 cells, Celltiter-Glo
How it was run: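 Viability is scored by CellTiter-Glo luminescence following a 48-hour treatment at 37° C. Data for structures shown without stereochemistry refer to stereoisomer mixtures.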

[2] = tested on: IL-2-FL/Gaussia Luciferase; experiment: Dox Induced IL2-FL-Gluc Assay; type: cell-based; details: for IC50: 24 hr Dox induction, 293FRT/TO cells, read-out: 24 hr Dox Inducible IL2FLGluc 293FRT/TO: Mean IC50; for 24 hr Dox Inducible IL2FLGluc 293FRT/TO: IL2/PD1: ratio of IL2FLGluc IC50 to PD1ssGluc IC50
How it was run: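 Doxycycline induces an IL-2(1-153)–Gaussia luciferase fusion in a stable Flp-In 293 T-REx line. Compound exposure runs alongside induction at 37° C.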

[3] = Liver Microsome Stability Assay (mouse); details: mouse liver microsomes, with NADPH, 1.0 uM compound
Description: (§1) Stability of a compound was assessed in the presence of liver microsomes from various sources—mouse, rat, monkey and human liver microsomes. 1.0 uM compound, 0.4% DMSO in 0.1 M Potassium Phosphate with 1.0 mg/mL liver microsomes, were incubated at 37° C. with or without 1 mM NADPH. The samples were quenched at 0, and 30 minutes.

[4] = tested on: HER3-ss+4aa/Gaussia Luciferase; experiment: Dox-Induced Her3-ss-Gluc Assay; type: cell-based; details: 24 hr Dox induction; 293FRT/TO cells; read-out: 24 hr Dox Inducible Her3(ss + 4)Gluc 293FRT/TO: Mean IC50
How it was run: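 Reporter line: Flp-In 293 T-REx, T-REx-regulated HER3-ss+4aa fused to Gaussia luciferase. Compound co-added with doxycycline after overnight plating, 37° C., 5% CO2.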

[5] = Liver Microsome Stability Assay (monkey); details: monkey liver microsomes, with NADPH, 1.0 uM compound
Description: as §1

[6] = tested on: PD1-ss+10aa/Gaussia Luciferase; experiment: Dox-Induced PD1-ss-Gluc Assay; type: cell-based; details: 24 hr Dox induction; 293FRT/TO cells; read-out: 24 hr Dox Inducible PD1ssGluc 293FRT/TO: Mean IC50
How it was run: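 The cell line was made by transfecting Flp-In 293 T-REx cells with a PD1 signal sequence+10aa–Gaussia luciferase fusion under T-REx control and selecting with hygromycin and blasticidin. Cells were seeded, and next day compound plus doxycycline was added at 37 °C, 5% CO2.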

[7] = Liver Microsome Stability Assay (rat); details: rat liver microsomes, with NADPH, 1.0 uM compound
Description: as §1

[8] = Liver Microsome Stability Assay (human); details: human liver microsomes, with NADPH, 1.0 uM compound
Description: as §1

[9] = tested on: TNFα-FL/Gaussia Luciferase; experiment: Dox Induced TNFα-FL-Gluc Assay; type: cell-based; details: for IC50: 24 hr Dox induction, 293FRT/TO cells, read-out: 24 hr Dox Inducible TNFaFLGluc 293FRT/TO: Mean IC50; for 24 hr Dox Inducible TNFaFLGluc 293FRT/TO: TNF/PD1: ratio of TNFaFLGluc IC50 to PD1ssGluc IC50
How it was run: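 Doxycycline-inducible Gaussia luciferase-tagged full-length TNFα (1-233) was expressed in stable Flp-In 293 T-REx cells. Compounds were co-added with doxycycline and incubated at 37 °C, 5% CO2.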

[10] = tested on: multiple myeloma cell line U266B1; experiment: U266 Cell Viability Assay; type: cell-based, human; details: Homo sapiens, U-266, 48 h, U266B1 cells, Celltiter-Glo
How it was run: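 Viability is measured as luciferase signal from CellTiter-Glo following a 48-hour incubation with compound at 37° C. under 5% CO2. Where structures lack drawn stereochemistry, values refer to stereoisomer mixtures.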

SMILES	EC50 [1] [µM]	IC50 [2] [µM]	24 hr Dox Inducible IL2FLGluc 293FRT/TO: IL2/PD1 [2]	Liver Microsome Stability (Multiple Species): Mouse - % Remaining after 30 min w/NADPH [3]	IC50 [4] [µM]	Liver Microsome Stability (Multiple Species): Monkey - % Remaining after 30 min w/NADPH [5]	IC50 [6] [µM]	Liver Microsome Stability (Multiple Species): Rat - % Remaining after 30 min w/NADPH [7]	Liver Microsome Stability (Multiple Species): Human - % Remaining after 30 min w/NADPH [8]	IC50 [9] [µM]	24 hr Dox Inducible TNFaFLGluc 293FRT/TO: TNF/PD1 [9]	EC50 [10] [µM]
Cc1cccc2nc(/C=C/c3csc(NC(=O)c4cccn4Cc4ccncc4)n3)cn12 [Compound B77, (E)-N-(4-(2-(5-methylimidazo[1,2-a]pyridin-2-yl)vinyl)thiazol-2-yl)-1-(pyridin-4-ylmethyl)-1H-pyrrole-2-carboxamide]	> 25	> 25	>51	2.21%	11.5	0.59%	0.491	1.67%	1.11%	> 25	>50.9	> 25
CC(C)c1c(/C=C/c2csc(NC(=O)c3cccn3Cc3ccnc(F)c3)n2)ncn1C [Compound B81, (E)-1-((2-fluoropyridin-4-yl)methyl)-N-(4-(2-(5-isopropyl-1-methyl-1H-imidazol-4-yl)vinyl)thiazol-2-yl)-1H-pyrrole-2-carboxamide]	16.9	> 25	>110	11.7%	15.6	0.06%	0.228	9.66%	0.58%	> 25	>109	> 25
Cc1cn(C(C)C)nc1/C=C/c1csc(NC(=O)c2cccn2Cc2ccnc(F)c2)n1 [Compound B83, (E)-1-((2-fluoropyridin-4-yl)methyl)-N-(4-(2-(1-isopropyl-4-methyl-1H-pyrazol-3-yl)vinyl)thiazol-2-yl)-1H-pyrrole-2-carboxamide]	11.3	3.23	10	11.1% and 10.1%	1.96	0.25% and 0.24%	0.32	6.87% and 5.01%	2.94% and 2.65%	11.7	36.6	15.3
CC(C)c1c(/C=C/c2csc(NC(=O)c3cccn3Cc3ccncc3)n2)ncn1C [Compound B85, (E)-N-(4-(2-(5-isopropyl-1-methyl-1H-imidazol-4-yl)vinyl)thiazol-2-yl)-1-(pyridin-4-ylmethyl)-1H-pyrrole-2-carboxamide]	> 25	> 25	>76	0.8%	> 25	0.13%	0.329	2.02%	1.26%	> 25	>75.9	> 25
O=C(Nc1nc(/C=C/c2ncn3c2CCCC3)cs1)c1cccn1Cc1ccnc(F)c1 [Compound B86, (E)-1-((2-fluoropyridin-4-yl)methyl)-N-(4-(2-(5,6,7,8-tetrahydroimidazo[1,5-a]pyridin-1-yl)vinyl)thiazol-2-yl)-1H-pyrrole-2-carboxamide]	16.5	> 25	>240	12.5%	23.2	0.11%	0.104	17%	0.27%	> 25	>239	16.7
CC(C)c1ccc(/C=C/c2csc(NC(=O)c3cccn3Cc3cc(F)nc(F)c3)n2)nc1 [Compound B87, (E)-1-((2,6-difluoropyridin-4-yl)methyl)-N-(4-(2-(5-isopropylpyridin-2-yl)vinyl)thiazol-2-yl)-1H-pyrrole-2-carboxamide]	9.92	> 25	>190	1.23%	> 25	0.04%	0.132	0.18%	0.15%	> 25	>189	14.1
Cc1cc(/C=C/c2csc(NC(=O)c3cccn3Cc3ccnc(F)c3)n2)no1 [Compound B88, (E)-1-((2-fluoropyridin-4-yl)methyl)-N-(4-(2-(5-methylisoxazol-3-yl)vinyl)thiazol-2-yl)-1H-pyrrole-2-carboxamide]	> 25	> 25	>40	3.15%	> 25	15.2%	0.625	2.29%	15.6%	> 25	>40.0	> 25
CCc1cc(/C=C/c2csc(NC(=O)c3cccn3Cc3ccnc(F)c3)n2)no1 [Compound B89, (E)-N-(4-(2-(5-ethylisoxazol-3-yl)vinyl)thiazol-2-yl)-1-((2-fluoropyridin-4-yl)methyl)-1H-pyrrole-2-carboxamide]	> 25	1.65	6.1	2.24%	1.1	0.17%	0.271	1.11%	0.4%	> 25	>92.2	> 25
